The source of these data is patent US10722501B2 (BAYER AKTIENGESELLSCHAFT, priority 2016, dated 2020).

Structures are written as SMILES.

By IC50 is commonly meant the concentration that gives 50% inhibition.

This assay has as its target T1, recombinant full-length human prolyl endopeptidase (PREP) (Homo sapiens, UniProt P48147).
T1 construct: To recombinant full-length human prolyl endopeptidase (PREP, R&D-Systems, 4308-SE); purchased R&D-Systems 4308-SE
T1 sequence (P48147 1-710): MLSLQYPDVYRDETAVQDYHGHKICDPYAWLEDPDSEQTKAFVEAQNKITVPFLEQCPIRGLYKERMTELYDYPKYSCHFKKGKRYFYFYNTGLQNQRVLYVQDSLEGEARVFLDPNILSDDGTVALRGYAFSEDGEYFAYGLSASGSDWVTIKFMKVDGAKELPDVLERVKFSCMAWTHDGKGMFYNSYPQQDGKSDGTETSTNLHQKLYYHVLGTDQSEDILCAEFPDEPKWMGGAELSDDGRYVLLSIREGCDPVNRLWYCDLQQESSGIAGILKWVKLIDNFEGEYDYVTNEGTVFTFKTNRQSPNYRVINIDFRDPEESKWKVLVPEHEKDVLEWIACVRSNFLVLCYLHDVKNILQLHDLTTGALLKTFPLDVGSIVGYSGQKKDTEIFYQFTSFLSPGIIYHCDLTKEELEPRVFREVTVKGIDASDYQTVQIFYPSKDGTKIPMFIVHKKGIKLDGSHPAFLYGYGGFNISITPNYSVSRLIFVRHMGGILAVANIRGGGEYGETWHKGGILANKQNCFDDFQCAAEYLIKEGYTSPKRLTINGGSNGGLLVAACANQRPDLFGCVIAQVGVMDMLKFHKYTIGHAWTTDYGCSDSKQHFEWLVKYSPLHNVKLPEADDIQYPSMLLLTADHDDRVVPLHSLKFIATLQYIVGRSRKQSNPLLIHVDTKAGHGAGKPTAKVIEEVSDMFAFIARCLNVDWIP
The assay can be described thus: Biochemical human prolyl endopeptidase (PREP) assay with fluorescently labelled substrate. Particulars: substrate Z-Gly-Pro-AMC 50 μM, 32° C., 60 min; some as mean values from multiple independent determinations. An outline of the steps: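 0.4 nM (final, example) recombinant PREP in pH 7.5 Tris buffer with EDTA, GSH, BSA and Brij-35; compounds at 1 nM to 30 μM. Reaction started with 50 μM Z-Gly-Pro-AMC and followed by fluorescence (ex 360/em 465 nm) at 32° C for 60 min. IC50 interpolated from percent activity based on initial slopes.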
Regarding `O=C(C1CC(C(F)(F)F)Cc2nn(Cc3ccc(Cl)nc3)c(=O)n21)N1CC[C@H](F)C1` (single isomer, unassigned) [Example 243], the IC50 was 0.623 nM.

Regarding `O=C(C1CC(C(F)(F)F)Cc2nn(Cc3ccc(Cl)nc3)c(=O)n21)N1CC[C@H](F)C1` (single isomer, unassigned) [Example 244], the IC50 was determined as 11 nM.

As to `O=C(C1CC(C(F)(F)F)Cc2nn(Cc3ccc(Cl)nc3)c(=O)n21)N1CC[C@@H](F)C1` (single isomer, unassigned) [Example 246], the IC50 turned out to be 1.3 nM.

Take `O=C(C1CC(C(F)(F)F)Cc2nn(Cc3ccc(Cl)nc3)c(=O)n21)N1CC[C@@H](F)C1` (single isomer, unassigned) [Example 247]: the IC50 was found to be 910 nM.

As for `O=C(C1CC(C(F)(F)F)Cc2nn(Cc3ccc(Cl)nc3)c(=O)n21)N1C[C@@H](F)[C@@H](F)C1` (single isomer, unassigned) [Example 248], the IC50 was 12 nM.

Consider `O=C(C1CC(C(F)(F)F)Cc2nn(Cc3ccc(Cl)nc3)c(=O)n21)N1C[C@@H](F)[C@@H](F)C1` (single isomer, unassigned) [Example 249], for which the IC50 is 0.83 nM.

Regarding `O=C(C1CC(C(F)(F)F)Cc2nn(Cc3ccc(Cl)nc3)c(=O)n21)N1C[C@@H](F)[C@@H](F)C1` (single isomer, unassigned) [Example 250], the half-inhibitory concentration (IC50) is 0.92 nM.

Consider `O=C(C1CC(C(F)(F)F)Cc2nn(Cc3ccnc(C(F)(F)F)c3F)c(=O)n21)N1CCC(F)(F)C1` (single isomer, unassigned) [Example 252, (5RS,7RS)-5-[(3,3-Difluoropyrrolidin-1-yl)carbonyl]-2-{[3-fluoro-2-(trifluoromethyl)pyridin-4-yl]methyl}-7-(trifluoromethyl)-5,6,7,8-tetrahydro[1,2,4]triazolo[4,3-a]pyridin-3(2H)-one], for which the IC50 came out at 3.1 nM.

In the case of `O=C(C1CC(C(F)(F)F)Cc2nn(Cc3ccnc(C(F)(F)F)c3F)c(=O)n21)N1CC(F)C1` (single isomer, unassigned) [Example 253, (5RS,7RS)-5-[(3-Fluoroazetidin-1-yl)carbonyl]-2-{[3-fluoro-2-(trifluoromethyl)pyridin-4-yl]methyl}-7-(trifluoromethyl)-5,6,7,8-tetrahydro[1,2,4]triazolo[4,3-a]pyridin-3(2H)-one], the IC50 was determined as 120 nM.

For the molecule `O=C(C1CC(C(F)(F)F)Cc2nn(Cc3ccnc(C(F)(F)F)c3F)c(=O)n21)N1CC(F)C1` (single isomer, unassigned) [Example 254, (5RS,7RS)-5-[(3-Fluoroazetidin-1-yl)carbonyl]-2-{[3-fluoro-2-(trifluoromethyl)pyridin-4-yl]methyl}-7-(trifluoromethyl)-5,6,7,8-tetrahydro[1,2,4]triazolo[4,3-a]pyridin-3(2H)-one], the IC50 was 30.5 nM.

Consider `O=C(C1CC(C(F)(F)F)Cc2nn(Cc3ccnc(C(F)(F)F)c3F)c(=O)n21)N1CC(F)C1` (single isomer, unassigned) [Example 255, (5RS,7RS)-5-[(3-Fluoroazetidin-1-yl)carbonyl]-2-{[3-fluoro-2-(trifluoromethyl)pyridin-4-yl]methyl}-7-(trifluoromethyl)-5,6,7,8-tetrahydro[1,2,4]triazolo[4,3-a]pyridin-3(2H)-one], for which the IC50 was found to be 15.1 nM.

Take `O=C(C1CC(C(F)(F)F)Cc2nn(Cc3ccnc(C(F)(F)F)c3F)c(=O)n21)N1CC[C@H](F)C1` (single isomer, unassigned) [Example 257]: the IC50 stood at 0.595 nM.

On to `O=C(C1CC(C(F)(F)F)Cc2nn(Cc3ccnc(C(F)(F)F)c3F)c(=O)n21)N1CC[C@H](F)C1` (single isomer, unassigned) [Example 258], for which the IC50 was determined as 91.5 nM.

As to `O=C(C1CC(C(F)(F)F)Cc2nn(Cc3ccnc(C(F)(F)F)c3F)c(=O)n21)N1C[C@@H](F)[C@@H](F)C1` (single isomer, unassigned) [Example 259], the IC50 came out at 17 nM.

As to `O=C(C1CC(C(F)(F)F)Cc2nn(Cc3ccnc(C(F)(F)F)c3F)c(=O)n21)N1C[C@@H](F)[C@@H](F)C1` (single isomer, unassigned) [Example 260], the IC50 is 2.6 nM.

In the case of `O=C(C1CC(C(F)(F)F)Cc2nn(Cc3ccnc(C(F)(F)F)c3F)c(=O)n21)N1C[C@@H](F)[C@@H](F)C1` (single isomer, unassigned) [Example 261], the IC50 was 1 nM.

As to `O=C(C1CC(C(F)(F)F)Cc2nn(Cc3ccnc(C(F)(F)F)c3F)c(=O)n21)N1C[C@@H](F)[C@@H](F)C1` (single isomer, unassigned) [Example 262], the IC50 worked out at 790 nM.

Regarding `O=C(C1CC(C(F)(F)F)Cc2nn(Cc3ncc(Cl)cc3F)c(=O)n21)N1CC[C@H](F)C1` (single isomer, unassigned) [Example 265], the IC50 amounted to 1.3 nM.

Take `O=C(C1CC(C(F)(F)F)Cc2nn(Cc3ncc(Cl)cc3F)c(=O)n21)N1C[C@@H](F)[C@@H](F)C1` (single isomer, unassigned) [Example 267]: the IC50 was 2.3 nM.

As to `O=C(C1CC(C(F)(F)F)Cc2nn(Cc3cncc(Cl)c3)c(=O)n21)N1C[C@@H](F)[C@@H](F)C1` (single isomer, unassigned) [Example 268], the IC50 came out at 23 nM.

On to `O=C(C1CC(C(F)(F)F)Cc2nn(Cc3cncc(Cl)c3)c(=O)n21)N1C[C@@H](F)[C@@H](F)C1` (single isomer, unassigned) [Example 269], for which the IC50 came out at 4.2 nM.

In the case of `O=C(C1CCC(C(F)(F)F)c2nn(Cc3ccc(C(F)(F)F)nc3)c(=O)n21)N1CC[C@H](F)C1` (single isomer, unassigned) [Example 272], the IC50 amounted to 0.695 nM.

For the molecule `O=C(C1C(C(F)(F)F)CCc2nn(Cc3ccnc(C(F)(F)F)c3F)c(=O)n21)N1CC[C@H](F)C1` (single isomer, unassigned) [Example 281], the IC50 was 2.2 nM.

Take `O=C(C1C(C(F)(F)F)CCc2nn(Cc3ncc(Cl)cc3Cl)c(=O)n21)N1CC[C@H](F)C1` (single isomer, unassigned) [Example 283]: the IC50 worked out at 6.2 nM.

`O=C(C1C(C(F)(F)F)CCc2nn(Cc3ccc(C(F)(F)F)nc3)c(=O)n21)N1CC[C@H](F)C1` (single isomer, unassigned) [Example 285]: the IC50 came to 1.3 nM.

Turning to `O=C(C1C(C(F)(F)F)CCc2nn(Cc3ccc(C(F)(F)F)nc3)c(=O)n21)N1CC[C@H](F)C1` (single isomer, unassigned) [Example 286], the IC50 was 98.5 nM.

Turning to `O=C(C1C(C(F)(F)F)CCc2nn(Cc3ncc(Cl)cc3Cl)c(=O)n21)N1C[C@@H](F)[C@@H](F)C1` (single isomer, unassigned) [Example 288], the IC50 was determined as 16 nM.

Take `O=C(C1C(C(F)(F)F)CCc2nn(Cc3ncc(Cl)cc3Cl)c(=O)n21)N1CCC(F)(F)C1` (single isomer, unassigned) [Example 290, (5RS,6RS)-2-[(3,5-Dichloropyridin-2-yl)methyl]-5-[(3,3-difluoropyrrolidin-1-yl)carbonyl]-6-(trifluoromethyl)-5,6,7,8-tetrahydro[1,2,4]triazolo[4,3-a]pyridin-3(2H)-one]: the 50% inhibitory concentration (IC50) was found to be 82 nM.

As to `O=C(C1C(C(F)(F)F)CCc2nn(Cc3ncc(Cl)cc3F)c(=O)n21)N1C[C@@H](F)[C@@H](F)C1` (single isomer, unassigned) [Example 292], the IC50 was found to be 37 nM.

In the case of `O=C(C1C(C(F)(F)F)CCc2nn(Cc3ncc(Cl)cc3F)c(=O)n21)N1C[C@@H](F)[C@@H](F)C1` (single isomer, unassigned) [Example 293], the IC50 came out at 85 nM.

`O=C(C1C(C(F)(F)F)CCc2nn(Cc3ncc(Cl)cc3F)c(=O)n21)N1CC[C@H](F)C1` (single isomer, unassigned) [Example 295]: the IC50 worked out at 12 nM.

For `O=C(C1C(C(F)(F)F)CCc2nn(Cc3ncc(Cl)cc3F)c(=O)n21)N1CCC(F)(F)C1` (single isomer, unassigned) [Example 297, (5RS,6RS)-2-[(5-Chloro-3-fluoropyridin-2-yl)methyl]-5-[(3,3-difluoropyrrolidin-1-yl)carbonyl]-6-(trifluoromethyl)-5,6,7,8-tetrahydro[1,2,4]triazolo[4,3-a]pyridin-3(2H)-one], the IC50 is 115 nM.

As to `O=C(C1C(C(F)(F)F)CCc2nn(Cc3ccc(Cl)cn3)c(=O)n21)N1CC[C@H](F)C1` (single isomer, unassigned) [Example 299], the IC50 came out at 3.5 nM.

`O=C(C1C(C(F)(F)F)CCc2nn(Cc3ccc(Cl)cn3)c(=O)n21)N1C[C@@H](F)[C@@H](F)C1` (single isomer, unassigned) [Example 301]: the IC50 came out at 19.5 nM.
